In ChEMBL document CHEMBL1201862, “PubChem BioAssay data set” (2004):
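Protocol summary: plate cells (96-well), add compound at 5 concentrations, incubate 48 h, interpolate endpoints linearly. GI50 = concentration required for 50% inhibition of growth.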 Calls of active or inactive are those of the source. No stated cut-off is given here; in the data, active = GI50 up to about 1.1 µM and inactive = higher.

Columns and labels:
Assay in all cases: inhibition of tumour cell growth, NCI panel, 48 h
[1] = test system: NCI-H522
[2] = test system: MOLT-4
[3] = test system: HCT-116
[4] = test system: RPMI-8226
[5] = test system: MCF7
[6] = test system: HCC 2998
[7] = test system: HL-60
[8] = test system: SK-MEL-2
[9] = test system: SF-268
[10] = test system: LOX IMVI
[11] = test system: K562
[12] = test system: SF-539
[13] = test system: NCI/ADR-RES
[14] = test system: DLD-1
[15] = test system: NCI-H226
[16] = test system: KM-20L2
[17] = test system: XF498
[18] = test system: SR
[19] = test system: PC-3
[20] = test system: MDA-MB-231

Measured: GI50

Cc1nc(O)nc(O)c1/C=C/C(=O)O
inactive: [1] > 1000 µM | [2] > 1000 µM | [3] > 1000 µM | [4] > 1000 µM | [5] > 1000 µM | [6] > 1000 µM | [7] > 1000 µM | [8] > 1000 µM | [9] > 1000 µM | [10] > 1000 µM | [11] > 1000 µM | [12] > 1000 µM | [13] > 1000 µM | [14] > 1000 µM | [15] > 1000 µM | [16] > 1000 µM | [17] > 1000 µM

CCN1c2ccccc2-n2c(C)nnc2-c2c(-c3ccccc3)n[nH]c21
inactive: [1] 2.25 µM | [2] 18.2 µM | [3] 26.5 µM | [4] 14.8 µM | [5] > 10 µM | [18] 13 µM | [7] 12.4 µM | [8] 19.7 µM | [9] 35.8 µM | [10] 23.1 µM | [11] 4.83 µM | [19] 30.4 µM | [12] 43.4 µM | [13] 11.9 µM | [20] 18.9 µM

Cc1cc(NC(=S)Nc2ccccc2)c(NC(=S)Nc2ccccc2)cc1C
inactive: [1] 7.78 µM | [2] 12.8 µM | [3] 14.3 µM | [4] 8.47 µM | [5] 26.6 µM | [6] 20.6 µM | [7] 1.9 µM | [8] 16.9 µM | [9] 36.8 µM | [10] 39.4 µM | [11] 9.44 µM | [12] 16 µM | [13] 11.5 µM | [14] 20.4 µM | [15] 47.6 µM | [16] 36.7 µM | [17] 16.4 µM

O=C(N/C(=C\c1ccccc1[N+](=O)[O-])c1nc2ccccc2[nH]1)c1ccccc1
inactive: [1] 56.8 µM | [2] 35.1 µM | [18] 37.6 µM | [6] > 100 µM | [8] > 100 µM | [11] 43.9 µM | [14] 93.5 µM | [16] > 100 µM | [17] > 100 µM

CCOc1ncn(-c2ccc(NC(=S)Nc3ncccn3)cc2)n1
inactive: [1] 17.4 µM | [2] 20.1 µM | [3] 32.5 µM | [4] 10.6 µM | [5] 32.7 µM | [18] 24 µM | [6] 25.9 µM | [7] 16.2 µM | [9] > 100 µM | [10] 17.6 µM | [11] 25.8 µM | [19] 46.5 µM | [12] 15.4 µM | [20] 24.8 µM

CC(=O)OC1COC(N2c3ccccc3[C@@H]3CCc4c([nH]c5ccccc45)[C@@H]32)C(OC(C)=O)C1OC(C)=O.CC(=O)OC1COC(N2c3ccccc3[C@H]3CCc4c([nH]c5ccccc45)[C@H]32)C(OC(C)=O)C1OC(C)=O (some centres not stated)
inactive: [1] 12.8 µM | [2] 5.79 µM | [3] 14.3 µM | [4] 12 µM | [18] 11.6 µM | [6] 40.1 µM | [8] 44.1 µM | [9] 30.9 µM | [19] 16.2 µM | [20] 14 µM

CC1=Nc2c(N)nc(N)nc2N(C)C1
inactive: [2] > 100 µM | [4] > 100 µM | [5] > 100 µM | [7] > 100 µM | [8] > 100 µM | [9] > 100 µM | [11] > 100 µM | [19] > 100 µM | [12] > 100 µM | [20] > 100 µM | [15] > 100 µM

CC(Sc1ccccc1)C(CO)(CO)[N+](=O)[O-] (configuration not stated)
inactive: [1] 13.5 µM | [2] 3.64 µM | [3] 17.8 µM | [4] 18.9 µM | [18] 2.34 µM | [6] 17.2 µM | [7] 3.58 µM | [8] 18.2 µM | [9] 22.8 µM | [10] 7.85 µM | [11] 11.2 µM | [12] 16.7 µM | [14] 14.3 µM | [15] 16.5 µM | [16] 17.2 µM

CCC1C(C#N)=C(O)NC(O)=C1C#N
inactive: [1] > 100 µM | [3] > 100 µM | [4] > 100 µM | [6] > 100 µM | [8] > 100 µM | [9] > 100 µM | [10] > 100 µM | [12] > 100 µM | [14] > 100 µM | [15] > 100 µM | [16] > 100 µM | [17] > 100 µM

CCP(=O)(CC)C(Cl)(Cl)C(O)C(Cl)(Cl)Cl (configuration not stated)
inactive: [1] > 100 µM | [2] > 100 µM | [3] > 100 µM | [4] > 100 µM | [5] > 100 µM | [18] > 100 µM | [6] > 100 µM | [7] > 100 µM | [8] > 100 µM | [10] > 100 µM | [11] > 100 µM | [19] > 100 µM | [13] > 100 µM | [20] > 100 µM | [15] > 100 µM

O=C(CCN1CCOCC1)/C(=C/c1ccccc1)c1ccccc1
inactive: [1] 1.77 µM | [2] 2.03 µM | [3] 3.47 µM | [4] 2 µM | [5] 4.28 µM | [6] 15 µM | [7] 1.79 µM | [8] 8.17 µM | [9] 7.11 µM | [10] 2.61 µM | [11] 1.89 µM | [12] 2.92 µM | [13] 2.48 µM | [14] 1.89 µM | [15] 7.55 µM | [16] 9.82 µM | [17] 6.5 µM

C=C1C(=O)OC2C[C@@]3(C)CCCC(=C)C3CC12 (some centres not stated)
inactive: [1] 1.9 µM | [3] 4.05 µM | [18] > 100 µM | [6] 13.6 µM | [8] 3.91 µM | [9] 12.9 µM | [10] 1.22 µM | [12] 1.95 µM | [14] 3.49 µM | [15] 12.9 µM | [16] 12.2 µM | [17] 3.69 µM

CC(=O)c1c(-c2ccco2)c(C#N)c(=S)n(C2OC(CO)C(O)C(O)C2O)c1-c1ccccc1 (configuration not stated)
inactive: [2] 31.6 µM | [3] 66.2 µM | [4] > 100 µM | [5] 90.2 µM | [18] 68.7 µM | [7] 41.2 µM | [9] 61.2 µM | [10] 36.2 µM | [11] 58.9 µM | [19] 64.4 µM | [12] 45.2 µM | [13] 55.1 µM | [20] > 100 µM
